Where only a bound is given, the exact number is not on record here.

The test has as its target T1, PDK1 kinase (Homo sapiens, UniProt O15530).
T1 sequence (O15530 1-556): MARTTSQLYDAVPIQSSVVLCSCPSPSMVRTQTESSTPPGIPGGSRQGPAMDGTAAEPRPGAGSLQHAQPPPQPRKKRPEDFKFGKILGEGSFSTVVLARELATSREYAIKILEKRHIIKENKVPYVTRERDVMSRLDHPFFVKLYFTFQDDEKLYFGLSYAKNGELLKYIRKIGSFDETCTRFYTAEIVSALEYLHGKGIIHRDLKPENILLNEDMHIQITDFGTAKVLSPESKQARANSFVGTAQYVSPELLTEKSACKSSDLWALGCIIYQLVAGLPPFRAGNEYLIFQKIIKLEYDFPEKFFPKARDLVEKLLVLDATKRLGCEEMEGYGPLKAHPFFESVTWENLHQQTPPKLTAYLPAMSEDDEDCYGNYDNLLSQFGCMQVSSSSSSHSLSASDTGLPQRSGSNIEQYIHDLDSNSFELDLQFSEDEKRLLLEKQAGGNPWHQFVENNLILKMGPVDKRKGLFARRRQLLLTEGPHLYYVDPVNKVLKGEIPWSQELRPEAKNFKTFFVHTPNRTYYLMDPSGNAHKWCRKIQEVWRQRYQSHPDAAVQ
The test is described as follows: PDK1 Kinase Alpha Screen Assay. It counts as biochemical. To be noted: Table 1; 10 μM ATP, 50 nM PDK1-4 peptide. The essentials:
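PDK1 phosphorylation of 50 nM biotinylated PDK1-4 peptide with 10 μM ATP in 50 mM Tris pH 7.5, 10 mM MgCl2, 0.1% BSA, 0.01% Tween-20, 2 mM DTT, 2.5% DMSO, 3-18 h. Stopped with EDTA; phosphopeptide detected by AlphaScreen using phospho-(Ser/Thr) PKA substrate antibody on protein A acceptor and streptavidin donor beads, overnight at room temperature.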
A word on the IC50: it is the point on the concentration scale where inhibition reaches its midpoint. The low end stands for inhibition by little substance, the high end for a need for much substance. `C#Cc1ccc2nc(Nc3ccc(C(=O)NC4CC4)cc3)ncc2c1Cl` [Example 107, 4-(5-chloro-6-ethynyl-quinazolin-2-ylamino)-N-cyclopropylbenzamide] registered an IC50 of under 5 µM. For the compound `COc1ccc2nc(Nc3cc(CN(C)C)cc(NC(C)=O)c3)ncc2c1` [Example 109, N-(3-((dimethylamino)-methyl)-5-(6-methoxy-quinazolin-2-ylamino)-phenyl)acetamide], the IC50 was under 5 µM. `COc1cncc(-c2cc(OC)c3nc(Nc4cc(CN(C)C)cc(NC(C)=O)c4)ncc3c2)n1` [Example 110, N-(3-((dimethylamino)-methyl)-5-(8-methoxy-6-(6-methoxypyrazin-2-yl)quinazolin-2-ylamino)phenyl)acetamide] yielded an IC50 of under 5 µM. In turn, `COc1nc(N)ncc1-c1cc(OC)c2nc(Nc3cc(CN(C)C)cc(NC(C)=O)c3)ncc2c1` [Example 111, N-(3-(6-(2-amino-4-methoxypyrimidin-5-yl)-8-methoxyquinazolin-2-ylamino)-5-((dimethyl-amino)methyl)-phenyl)-acetamide] yielded an IC50 of 5 to 10 µM. As for `COc1cc2nc(Nc3cccc(-n4cnnn4)c3)ncc2cc1-c1nccs1` [Example 112, N-(3-(1H-tetrazol-1-yl)phenyl)-7-methoxy-6-(thiazol-2-yl)quinazolin-2-amine], the figure is under 5 µM. Take `C#Cc1cc(OC)c2nc(Nc3ccc(C(=O)N4CCOCC4)cc3)ncc2c1Cl` [Example 113, (4-(5-chloro-6-ethynyl-8-methoxyquinazolin-2-ylamino)phenyl)-(morpholino)methanone]: the IC50 was under 5 µM. In turn, `C#Cc1cc(OC)c2nc(Nc3ccc(C(=O)NC(C)C)cc3)ncc2c1Cl` [Example 114, 4-(5-chloro-6-ethynyl-8-methoxyquinazolin-2-ylamino)-N-isopropyl-benzamide] came in with a half-inhibitory concentration (IC50) of under 5 µM. Then `COc1cc(-c2nccs2)c(Cl)c2cnc(Nc3ccc(N4CCOCC4)cc3)nc12` [Example 115, 5-chloro-8-methoxy-N-(4-morpholinophenyl)-6-(thiazol-2-yl)quinazolin-2-amine], with under 5 µM. The compound `COc1cc(Br)c(Cl)c2cnc(Nc3ccc(N4CCOCC4)cc3)nc12` [Example 116, 6-bromo-5-chloro-8-methoxy-N-(4-morpholinophenyl)-quinazolin-2-amine] returned an IC50 of under 5 µM. The compound `COc1cc(-c2nccs2)c(Cl)c2cnc(Nc3ccc(C(=O)N4CCOCC4)cc3)nc12` [Example 117, (4-(5-chloro-8-methoxy-6-(thiazol-2-yl)quinazolin-2-ylamino)phenyl)-(morpholino)-methanone] registered an IC50 of under 5 µM. In turn, `COc1cc(Br)c(Cl)c2cnc(Nc3ccc(C(=O)N4CCOCC4)cc3)nc12` [Example 118, (4-(6-bromo-5-chloro-8-methoxyquinazolin-2-ylamino)phenyl)-(morpholino)-methanone] displayed an IC50 of under 5 µM. Then `COc1cc(-c2nccs2)c(Cl)c2cnc(Nc3ccc(C(=O)NC(C)C)cc3)nc12` [Example 119, 4-(5-chloro-8-methoxy-6-(thiazol-2-yl)quinazolin-2-ylamino)-N-isopropyl-benzamide], with under 5 µM. The compound `C#Cc1cc2cnc(Nc3ccc(C(=O)N4CCOCC4)c(Cl)c3)nc2cc1OC` [Example 120, (2-chloro-4-(6-ethynyl-7-methoxyquinazolin-2-ylamino)phenyl)-(morpholino)methanone] displayed a 50% inhibitory concentration (IC50) of under 5 µM. Then `C#Cc1ccc2nc(Nc3cccc(N4CCOCC4)c3)ncc2c1Cl` [Example 121, 5-chloro-6-ethynyl-N-(3-morpholinophenyl)-quinazolin-2-amine], with under 5 µM; and `COc1cc2nc(Nc3cc(CN(C)C)cc(NC(C)=O)c3)ncc2cc1-c1nccs1` [Example 122, N-(3-((dimethylamino)-methyl)-5-(7-methoxy-6-(thiazol-2-yl)quinazolin-2-ylamino)phenyl)acetamide], with under 5 µM; and `NC(=O)c1cc(Nc2ncc3cc(Br)ccc3n2)ccc1N1CCOCC1` [Example 123, 5-(6-bromoquinazolin-2-ylamino)-2-morpholino-benzamide], with 5 to 10 µM. As for `C#Cc1ccc2nc(Nc3ccc(N4CCOCC4)c(C(N)=O)c3)ncc2c1` [Example 124, 5-(6-ethynylquinazolin-2-ylamino)-2-morpholino-benzamide], the figure is under 5 µM; as for `C#Cc1ccc2nc(Nc3cc(CN4CCOCC4)cc(NC(C)=O)c3)ncc2c1` [Example 125, N-(3-(6-ethynylquinazolin-2-ylamino)-5-(morpholino-methyl)phenyl)acetamide], under 5 µM; as for `CC(=O)Nc1cc(CN2CCCC2)cc(Nc2ncc3cc(-c4nccs4)ccc3n2)c1` [Example 126, N-(3-(pyrrolidin-1-ylmethyl)-5-(6-(thiazol-2-yl)quinazolin-2-ylamino)-phenyl)acetamide], under 5 µM. Compound `C#Cc1ccc2nc(Nc3cc(CN4CCCC4)cc(NC(C)=O)c3)ncc2c1` [Example 127, N-(3-(6-ethynylquinazolin-2-ylamino)-5-(pyrrolidin-1-ylmethyl)phenyl)-acetamide] returned an IC50 of under 5 µM. `CC(=O)Nc1cc(CN2CCOCC2)cc(Nc2ncc3cc(Br)cc(Cl)c3n2)c1` [Example 128, N-(3-(6-bromo-8-chloro-quinazolin-2-ylamino)-5-(morpholinomethyl)-phenyl)-acetamide] registered an IC50 of under 5 µM. Regarding `C#Cc1cc(Cl)c2nc(Nc3cc(CN4CCOCC4)cc(NC(C)=O)c3)ncc2c1` [Example 129, N-(3-(8-chloro-6-ethynyl-quinazolin-2-ylamino)-5-(morpholinomethyl)-phenyl)-acetamide], the IC50 was under 5 µM. Compound `C#Cc1ccc2nc(Nc3cc(NC(C)=O)cc(NC(C)=O)c3)ncc2c1Cl` [Example 130, N,N′-(5-(5-chloro-6-ethynylquinazolin-2-ylamino)-1,3-phenylene-) diacetamide] came in with an IC50 of under 5 µM. Then `CC(=O)Nc1cc(CN2CCOCC2)cc(Nc2ncc3cc(-c4nccs4)ccc3n2)c1` [Example 133, N-(3-(morpholinomethyl)-5-(6-(thiazol-2-yl)-quinazolin-2-ylamino)-phenyl)acetamide], with under 5 µM; and `CC(=O)Nc1cc(CN(C)C)cc(Nc2ncc3cc(Br)cc(F)c3n2)c1` [Example 135, N-(3-(6-Bromo-8-fluoroquinazolin-2-ylamino)-5-((dimethylamino)-methyl)phenyl)acetamide], with under 5 µM. As for `CC(=O)Nc1cc(CN2CCOCC2)cc(Nc2ncc3cc(-c4cnoc4)ccc3n2)c1` [Example 136, N-(3-(6-(isoxazol-4-yl)quinazolin-2-ylamino)-5-(morpholinomethyl)-phenyl)-acetamide], the figure is under 5 µM.

For the compound `C#Cc1ccc2nc(Nc3cc(CN)cc(NC(C)=O)c3)ncc2c1` [Example 137, N-(3-(aminomethyl)-5-(6-ethynylquinazolin-2-ylamino)phenyl)acetamide], the 50% inhibitory concentration (IC50) was under 5 µM. With `C#Cc1ccc2nc(Nc3ccccc3)ncc2c1` [Example 138, 6-ethynyl-N-phenyl-quinazolin-2-amine], the IC50 is under 5 µM. Then `C#Cc1cc(F)c2nc(Nc3cc(CN(C)C)cc(NC(C)=O)c3)ncc2c1` [Example 139, N-(3-((Dimethylamino)methyl)-5-(6-ethynyl-8-fluoroquinazolin-2-ylamino)-phenyl)acetamide], with under 5 µM; and `COc1cc2nc(Nc3cc(CN4CCOCC4)cc(NC(C)=O)c3)ncc2cc1-c1nccs1` [Example 140, N-(3-(7-methoxy-6-(thiazol-2-yl)quinazolin-2-ylamino)-5-(morpholino-methyl)phenyl)-acetamide], with under 5 µM; and `C#Cc1ccc2nc(Nc3cc(CN4CCNCC4)cc(NC(C)=O)c3)ncc2c1` [Example 141, N-(3-(6-ethynylquinazolin-2-ylamino)-5-(piperazin-1-ylmethyl)phenyl)acetamide], with under 5 µM. As to `C#Cc1ccc2nc(Nc3cc(CN4CCOCC4)cc(NC(=O)C(C)C)c3)ncc2c1` [Example 142, N-(3-(6-ethynylquinazolin-2-ylamino)-5-(morpholino-methyl)phenyl)-isobutyramide], the IC50 is under 5 µM.

`C#Cc1ccc2nc(Nc3cc(CN4CCOCC4)cc(NS(C)(=O)=O)c3)ncc2c1` [Example 143, N-(3-(6-ethynylquinazolin-2-ylamino)-5-(morpholino-methyl)phenyl)methane-sulfonamide] registered an IC50 of under 5 µM. For `Brc1ccc2nc(Nc3cc(CN4CCOCC4)cc(-c4nnn[nH]4)c3)ncc2c1` [Example 144, 6-bromo-N-(3-(morpholinomethyl)-5-(1H-tetrazol-5-yl)phenyl)-quinazolin-2-amine], the IC50 is under 5 µM. In the case of `CC(=O)Nc1cc(CN2CCOCC2)cc(Nc2ncc3cc(Br)ccc3n2)c1` [Example 145, N-(3-(6-bromoquinazolin-2-ylamino)-5-(morpholino-methyl)phenyl)acetamide], the IC50 is under 5 µM.

`C#Cc1ccc2nc(Nc3cc(NC(C)=O)cc(-c4ccncc4)c3)ncc2c1` [Example 146, N-(3-(6-ethynylquinazolin-2-ylamino)-5-(pyridin-4-yl)phenyl)acetamide] returned an IC50 of under 5 µM.

These data come from patent publication US20100216767A1, “QUINAZOLINES FOR PDK1 INHIBITION” (priority 2006, published 2010).
